Tested on: U87MG glioblastoma CDX
Test: Subcutaneous U87MG glioblastoma CDX: tumor weight and time of tumor progression
Type: in vivo, cd1 nu/nu mice (human GBM cell line)
Conditions: for tumor weight [%]: relative to vehicle = 100
Description: Effects of KcAng(1-7) were evaluated in vivo in a subcutaneous GBM xenograft model in nude mice. Insurgence of neurologic phenomena and differences in the survival rates were evaluated. Human GBM cell lines U87MG and U251MG were used. Cell lines were grown in DMEM nutrient mixture supplemented with 10% fetal bovine serum, 1% penicillin/streptomycin, and 25 mM HEPES buffer. All cell lines were cultured at 37° C. in a humidified atmosphere consisting of 5% CO2 and 95% air. Medium was changed every 2 days and the cell morphology was evaluated under microscope daily.
Six-week-old male athymic nude mice (age 5-7 weeks) were housed with free access to food and water in a temperature-controlled room. Each group is represented by 10 xenograft cd1 nu/nu mice. The mice were injected s.c. in the right distal hind limb with one million of cultured human tumor cell lines suspended in 0.15 mL of 2:1 solution of PBS/Matrigel (Matrigel BD Biosciences). Xenografts were measured every four days with a digital caliper in two perpendicular dimensions. Tumor volume was calculated according to the following formula:
Tumor volume=(tumor width)×(tumor width)×(tumor length)÷2
At the end of experiments, mice were euthanized and tumors removed. Weight loss or other signs of distress such as hunched posture were checked during and after treatments.
Efficacy of treatment was evaluated by: (1) the size of tumors (vehicle control and treated), (2) the relative weight at the end of experiment, and (3) the indirect evaluation of angiogenesis by determining hemoglobin levels.
In vivo tumor response to treatment was evaluated using the following parameters: (i) Complete response (CR): defined as the disappearance of a measurable lesion, (ii) Partial response (PR): defined as a reduction of greater than 50% of the sum of the products of the cross-sectional diameters of the measurable lesion, (iii) Stable disease (SD): defined as a reduction of less than 50% or an increase of less than 25% in the sum of the products of the cross-sectional diameters of the measurable lesions, (iv) Tumor progression (TP): defined as an increase of greater than […] in the sum of the products of the cross-sectional diameters of the measured lesion, (v) Time to progression (TTP) defining the tumor growth delay. Tumor progression was calculated through the analysis of bioluminescence imaging (BLI) photon counts and when possible through the analyses of tumor volumes calculated by magnetic resonance imaging (MRI), (vi) Disease free survival (DFS) is the time elapsed between the time point at which no luciferase activity is detectable anymore and the death of the animal, (vii) Overall survival (OS) is the time elapsed between tumor inoculation and death of the animal. […] Luciferase transfected cells were used for bioluminescence evaluations.
Data are presented as mean and standard error of the mean (SEM) or standard deviation (SD). Statistical comparisons between control and treated groups were established by carrying out the Kruskal-Wallis test (a nonparametric one-way analysis of variance) or the Mann-Whitney test (in the case of two groups). The level of significance was corrected by multiplying the P value by the number of comparisons performed (n) according to […] correction. TP, TTP and DFS were analyzed by Kaplan-Meier curves and Gehan's generalized Wilcoxon test. All statistical analyses were undertaken using SPSS 10.0.
Mice with U87MG cell CDX were randomized at day 0. KcAng(1-7) was injected daily subcutaneously (0.2 μg/kg) starting at day 0 until the (ethical) endpoint maximally at day 42. TMZ was administered at 16 mg/kg during 5 consecutive days, that is from […]. Volumetric evaluation of the tumor was performed every 4 days and tumor weight was measured at the end of the experiment.
Synergism was determined using the methods described in Clarke et al. Breast Cancer Research and Treatment 46:255-278 (1997).
Mice with U87MG cell CDX were randomized at day 0. […]

Lys-Asp-Arg-Val-Abu/Ala-Ile-His-Abu/Ala (KDRVAIHA; not fully specified; cyclic thioether (Abu/Ala bridge); VARIANT (5)..(5) /replace=“Abu”; VARIANT (8)..(8) /replace=“Abu”; SITE (1)..(8) /note=“Variant residues given in the sequence have no preference with respect to those in the annotations for variant positions”) [KcAng(1-7)]
Time of tumor progression - TTP, mean (days ± SD) (KcAng(1-7) 0.2 μg/kg/d s.c., TMZ 16 mg/kg for 5 days, or both): 12.80 ± 0.54 days | increase of the time of tumor progression (KcAng(1-7) 0.2 μg/kg/d vs vehicle): approximately 2 days | Time of tumor progression - TTP, mean (days ± SEM) (KcAng(1-7) 1 μg/kg/d s.c., Losartan 20 mg/kg/d i.p., or both): 15.2 ± 0.9 days | Tumor weight, mean (mg ± SEM) (KcAng(1-7) 1 μg/kg/d s.c., Losartan 20 mg/kg/day i.p., or both): 580 ± 27 mg | Tumor weight, mean (mg ± SD) (end of experiment, KcAng(1-7) 0.2 μg/kg/d s.c., TMZ 16 mg/kg for 5 days, or both): 830 ± 57 mg | tumor weight [%] (KcAng(1-7) 0.2 μg/kg/d, TMZ 16 mg/kg, or both): 79.8% | tumor weight [%] (KcAng(1-7) 1 μg/kg/d, Losartan 20 mg/kg/d, or both): 55.8%
